Molecular target: T1, ERα (Homo sapiens, UniProt P03372)
T1 construct: host or cells: MCF7
T1 sequence (P03372 1-595): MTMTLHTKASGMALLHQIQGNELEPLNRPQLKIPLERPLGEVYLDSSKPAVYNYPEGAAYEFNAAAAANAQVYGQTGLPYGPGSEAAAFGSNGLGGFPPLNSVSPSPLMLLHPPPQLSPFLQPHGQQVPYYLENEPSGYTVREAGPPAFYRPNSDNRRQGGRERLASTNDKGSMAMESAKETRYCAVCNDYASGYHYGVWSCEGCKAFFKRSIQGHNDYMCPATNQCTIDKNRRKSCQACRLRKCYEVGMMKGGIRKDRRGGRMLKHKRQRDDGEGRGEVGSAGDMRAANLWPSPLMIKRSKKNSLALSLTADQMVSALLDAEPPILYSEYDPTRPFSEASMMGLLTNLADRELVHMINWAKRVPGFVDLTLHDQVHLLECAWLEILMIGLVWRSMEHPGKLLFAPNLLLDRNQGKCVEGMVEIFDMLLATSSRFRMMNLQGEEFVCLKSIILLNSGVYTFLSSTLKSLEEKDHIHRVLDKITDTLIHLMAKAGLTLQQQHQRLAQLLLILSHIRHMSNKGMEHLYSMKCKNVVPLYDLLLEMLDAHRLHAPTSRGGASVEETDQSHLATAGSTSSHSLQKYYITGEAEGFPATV
Assay: Estrogen receptor degradation activity: breast cancer cell ERα in cell western assay (MCF7 cells)
Type: cell-based
Conditions: for % Degradation At 0.3 μM: 4 hours, relative to fulvestrant 0.1 μM positive control; for DC50: 4 hours post compound addition, concentration which degrades 50% of the estrogen receptor, read-out: Degradation IC50
How it was run: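 Compounds were applied to MCF7 cells in stripped-serum, phenol red-free medium for 4 h at final 0.3–0.0000018 μM, with fulvestrant (0.1 μM) as control. Value: IC50 (nM) for 50% ERα degradation.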

% Degradation At 0.3 μM | DC50 | SMILES
87% | 1.6 nM | CC(C)C1CCc2cc(C(=O)O)ccc2C(c2ccc(CC3CN(CCCF)C3)cc2)=C1c1ccc(Cl)cc1 (racemic) [Example 317, 8-(4-chlorophenyl)-9-(4-((1-(3-fluoropropyl)azetidin-3-yl)methyl)phenyl)-7-isopropyl-6,7-dihydro-5H-benzo[7]annulene-3-carboxylic acid]
87% | 0.3 nM | O=C(O)c1ccc2c(c1)CCCC(c1c(F)cccc1Cl)=C2c1ccc(CC2CN(CCCF)C2)cc1 [Example 220, 8-(2-chloro-6-fluorophenyl)-9-(4-((1-(3-fluoropropyl)azetidin-3-yl)methyl)phenyl)-6,7-dihydro-5H-benzo[7]annulene-3-carboxylic acid]
86% | 0.3 nM | O=C(O)c1ccc2c(c1)CCCC(c1cccc(Cl)c1C(F)(F)F)=C2c1ccc(CC2CN(CCC(F)F)C2)cc1 [Example 280, 8-(3-chloro-2-(trifluoromethyl)phenyl)-9-(4-((1-(3,3-difluoropropyl)azetidin-3-yl)methyl)phenyl)-6,7-dihydro-5H-benzo[7]annulene-3-carboxylic acid]
86% | 0.8 nM | O=C(O)c1ccc2c(c1)CCC(C1CC1)C(c1ccc(Cl)cc1)=C2c1ccc(CC2CN(CCCF)C2)cc1 (racemic) [Example 324, 8-(4-chlorophenyl)-7-cyclopropyl-9-(4-((1-(3-fluoropropyl)azetidin-3-yl)methyl)phenyl)-6,7-dihydro-5H-benzo[7]annulene-3-carboxylic acid]
84% | 0.8 nM | O=C(O)c1ccc2c(c1)CCCC(c1ncc(Cl)cc1C(F)(F)F)=C2c1ccc(CC2CN(CCC(F)F)C2)cc1 [Example 291, 8-(5-chloro-3-(trifluoromethyl)pyridin-2-yl)-9-(4-((1-(3,3-difluoropropyl)azetidin-3-yl)methyl)phenyl)-6,7-dihydro-5H-benzo[7]annulene-3-carboxylic acid]
73% | 48 nM | O=C(O)c1ccc2c(c1)CCCC(c1cccc(CCO)c1)=C2c1ccc(CC2CN(CCCF)C2)cc1 [Example 319, 9-(4-((1-(3-fluoropropyl)azetidin-3-yl)methyl)phenyl)-8-(3-(2-hydroxyethyl)phenyl)-6,7-dihydro-5H-benzo[7]annulene-3-carboxylic acid]
73% | 9 nM | O=C(O)c1ccc2c(c1)CCCC(Cc1ccccc1)=C2c1ccc(CC2CN(CCCF)C2)cc1 [Example 311, 8-benzyl-9-(4-((1-(3-fluoropropyl)azetidin-3-yl)methyl)phenyl)-6,7-dihydro-5H-benzo[7]annulene-3-carboxylic acid]
78% | 0.7 nM | CCOC(c1ccc(C2=C(c3ccc(Cl)cc3Cl)CCCc3cc(C(=O)O)ccc32)cc1)C1CN(CCCF)C1 (single isomer, unassigned; isomer 2) [Example 230, 8-(2,4-dichlorophenyl)-9-(4-(ethoxy(1-(3-fluoropropyl)azetidin-3-yl)methyl)phenyl)-6,7-dihydro-5H-benzo[7]annulene-3-carboxylic Acid Isomer 2]
89% | 0.5 nM | COc1nc(C(F)(F)F)ccc1C1=C(c2ccc(CC3CN(CCCF)C3)cc2)c2ccc(C(=O)O)cc2CCC1 [Example 268, 9-(4-((1-(3-fluoropropyl)azetidin-3-yl)methyl)phenyl)-8-(2-methoxy-6-(trifluoromethyl)pyridin-3-yl)-6,7-dihydro-5H-benzo[7]annulene-3-carboxylic acid]
92% | 0.4 nM | COc1ccc(C2=C(c3ccc(CC4CN(CCCF)C4)cc3)c3ccc(C(=O)O)cc3CCC2)c(Cl)c1 [Example 24, 8-(2-chloro-4-methoxyphenyl)-9-(4-((1-(3-fluoropropyl)azetidin-3-yl)methyl)phenyl)-6,7-dihydro-5H-benzo[7]annulene-3-carboxylic acid]
90% | 0.6 nM | O=C(O)c1ccc2c(c1)CCCC(c1ccc(F)cc1CC(F)(F)F)=C2c1ccc(CC2CN(CCCF)C2)cc1 [Example 272, 8-(4-fluoro-2-(2,2,2-trifluoroethyl)phenyl)-9-(4-((1-(3-fluoropropyl)azetidin-3-yl)methyl)phenyl)-6,7-dihydro-5H-benzo[7]annulene-3-carboxylic acid]
92% | 0.3 nM | O=C(O)c1ccc2c(c1)CCCC(c1ccc(F)cc1C(F)(F)F)=C2c1ccc(CC2CN(CCCF)C2)cc1 [Example 26, 8-(4-fluoro-2-(trifluoromethyl)phenyl)-9-(4-((1-(3-fluoropropyl)azetidin-3-yl)methyl)phenyl)-6,7-dihydro-5H-benzo[7]annulene-3-carboxylic acid]
86% | 4 nM | C[C@H]1CC[C@H](C2=C(c3ccc(CC4CN(CCCF)C4)cc3)c3ccc(C(=O)O)cc3CCC2)CC1 [Example 15, 9-(4-((1-(3-fluoropropyl)azetidin-3-yl)methyl)phenyl)-8-((1r,4r)-4-methylcyclohexyl)-6,7-dihydro-5H-benzo[7]annulene-3-carboxylic acid]
88% | 5.8 nM | O=C(O)c1ccc2c(c1)CCCC(c1ccc(Cl)cc1C(F)(F)F)=C2c1ccc(CC2(F)CN(CCCF)C2)cc1 [Example 237, 8-(4-chloro-2-(trifluoromethyl)phenyl)-9-(4-((3-fluoro-1-(3-fluoropropyl)azetidin-3-yl)methyl)phenyl)-6,7-dihydro-5H-benzo[7]annulene-3-carboxylic acid]
77% | 0.6 nM | CCOC(c1ccc(C2=C(c3ccc(Cl)cc3Cl)CCCc3cc(C(=O)O)ccc32)cc1)C1CN(CCCF)C1 (single isomer, unassigned; isomer 1) [Example 229, 8-(2,4-dichlorophenyl)-9-(4-(ethoxy(1-(3-fluoropropyl)azetidin-3-yl)methyl)phenyl)-6,7-dihydro-5H-benzo[7]annulene-3-carboxylic Acid Isomer 1]
86% | 0.9 nM | O=C(O)c1ccc2c(c1)CCCC(C1C[C@H]3CCC[C@H]3C1)=C2c1ccc(CC2CN(CCCF)C2)cc1 (single isomer, unassigned) [Example 336, 9-(4-((1-(3-fluoropropyl)azetidin-3-yl)methyl)phenyl)-8-(octahydropentalen-2-yl)-6,7-dihydro-5H-benzo[7]annulene-3-carboxylic acid]
73% | 31.6 nM | N#Cc1c(C(=O)O)ccc2c1CCCC(c1ccc(Cl)cc1Cl)=C2c1ccc(CC2CN(CCCF)C2)cc1.O=CO [Example 246, 4-cyano-8-(2,4-dichlorophenyl)-9-(4-((1-(3-fluoropropyl)azetidin-3-yl)methyl)phenyl)-6,7-dihydro-5H-benzo[7]annulene-3-carboxylic acid, formic acid]
86% | 4.7 nM | CC1CCc2cc(C(=O)O)ccc2C(c2ccc(CC3CN(CCCF)C3)cc2)=C1c1ccc(Cl)cc1 (single isomer, unassigned) [Example 327, 8-(4-chlorophenyl)-9-(4-((1-(3-fluoropropyl)azetidin-3-yl)methyl)phenyl)-7-methyl-6,7-dihydro-5H-benzo[7]annulene-3-carboxylic acid]

— patent publication US12595230B2, “Substituted 6,7-dihydro-5H-benzo[7]annulene compounds and their derivatives, processes for their preparation and therapeutic uses thereof” (Sanofi, priority 2020, dated 2026)
